Experimental data from patent US20250093263A1, “FRET-BASED ASSAYS” (The General Hospital Corporation, priority 2021, published 2025).
One block for each compound: values may come before it.

How the values were obtained:
[1] = target: HDAC1-HaloTag in HEK293T cells (Homo sapiens, UniProt Q13547); experiment: Cellular TR-FRET target engagement assay, HDAC1-HaloTag in HEK293T cells; type: cell-based; details: HEK-293T, read-out: Cellular TR-FRET assay SAHA-NCT 1 μM EC50 column: % @ 100
BRD4(BD1) = target: T1, BRD4(BD1) (Homo sapiens, UniProt O60885); experiment: TR-FRET saturation binding of JQ1-FITC, BRD4(BD1); details: 0.5 nM GST-BRD4(BD1), 2 nM CoraFluor-1-labeled anti-GST VHH; read-out: KD,app BRD4(BD1)
T1 construct: validated for its applicability with individual recombinant bromodomains BRD4(BD1) and BRD4(BD2); purchased BPS Biosciences, Inc 31040
Experimental: (§1) TR-FRET measurements: unless otherwise noted, experiments were performed in white, 384-well microtiter plates (Corning 3572) in 30 μL assay volume. […] The 490/10 and 520/10 emission channels were acquired with a 50% mirror and a dichroic 510 mirror, respectively, using independently optimized detector gain settings unless specified otherwise. The TR-FRET ratio was taken as the 520/490 nm intensity ratio on a per-well basis.
(§2) Determination of apparent equilibrium dissociation constant (KD,app) of JQ1-FITC toward individual recombinant bromodomains and endogenous BRD4 in MCF7 lysate: recombinant BRD4(BD1) and BRD4(BD2) were purchased from BPS Biosciences, Inc and Epicypher, Inc (GST-BRD4(BD1), 31040; GST-BRD4(BD2), 15-0013, respectively). Recombinant bromodomains were diluted to 0.5 nM in assay buffer (25 mM HEPES, 150 mM NaCl, 0.5 mg/mL BSA, 0.005% TWEEN-20, pH 7.5) with 2 nM CoraFluor-1-labeled anti-GST VHH, then JQ1-FITC was added in serial dilution (1:1.6 titration, 15-point, cmax=100 nM) using a D300 digital dispenser (Hewlett-Packard) and allowed to equilibrate for 2 h at room temperature before TR-FRET measurements were taken. Nonspecific signal was determined with 50 μM JQ1-Acid, and data were fitted to a One Site—Specific Binding model in Prism 9.

BRD4(BD2) = target: T2, BRD4(BD2) (Homo sapiens, UniProt O60885); experiment: TR-FRET saturation binding of JQ1-FITC, BRD4(BD2); details: 0.5 nM GST-BRD4(BD2), 2 nM CoraFluor-1-labeled anti-GST VHH; read-out: KD,app BRD4(BD2)
T2 construct: validated for its applicability with individual recombinant bromodomains BRD4(BD1) and BRD4(BD2); purchased Epicypher, Inc 15-0013
Experimental: as §1, §2

[2] = target: T3, HsmPheRS (human mitochondrial PheRS) (Homo sapiens, UniProt O95363); experiment: TR-FRET titration of tracer MAT588, HsmPheRS; type: binding; details: absence of substrates, titrating
T3 construct: rows headed: HsmPheRS KD; other: absence of substrates, titrating; human mitochondrial PheRS (HisHalo-HsmPheRS); fused on or other part: C-terminal HaloTag, HRV-3C site and His9 tag; the CoraFluor-1 terbium donor is attached through the HaloTag or by direct Pfp labelling
T3 sequence (O95363 42-357 limits assumed): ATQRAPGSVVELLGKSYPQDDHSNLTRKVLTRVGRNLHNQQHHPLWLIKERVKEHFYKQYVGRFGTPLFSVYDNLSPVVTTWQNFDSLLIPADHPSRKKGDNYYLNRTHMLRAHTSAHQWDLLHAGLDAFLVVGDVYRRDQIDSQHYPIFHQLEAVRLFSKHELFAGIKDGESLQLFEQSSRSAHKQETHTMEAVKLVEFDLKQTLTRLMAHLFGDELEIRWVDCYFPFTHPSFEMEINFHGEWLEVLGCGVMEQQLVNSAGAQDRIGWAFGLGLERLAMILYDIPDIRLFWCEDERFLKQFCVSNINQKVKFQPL

[3] = test system: HsmPheRS (human mitochondrial PheRS); experiment: TR-FRET titration of tracer MAT588, HsmPheRS; type: binding
[4] = target: T4, HscPheRS (human cytoplasmic PheRS) (Homo sapiens, UniProt Q9Y285); experiment: TR-FRET titration of tracer MAT588, HscPheRS; type: binding; details: absence of substrates
T4 construct: HisHalo-HscPheRS; alpha subunit residues 1-508; beta subunit residues 1-589; made in house; host or cells: E. coli
T4 sequence (Q9Y285 1-508): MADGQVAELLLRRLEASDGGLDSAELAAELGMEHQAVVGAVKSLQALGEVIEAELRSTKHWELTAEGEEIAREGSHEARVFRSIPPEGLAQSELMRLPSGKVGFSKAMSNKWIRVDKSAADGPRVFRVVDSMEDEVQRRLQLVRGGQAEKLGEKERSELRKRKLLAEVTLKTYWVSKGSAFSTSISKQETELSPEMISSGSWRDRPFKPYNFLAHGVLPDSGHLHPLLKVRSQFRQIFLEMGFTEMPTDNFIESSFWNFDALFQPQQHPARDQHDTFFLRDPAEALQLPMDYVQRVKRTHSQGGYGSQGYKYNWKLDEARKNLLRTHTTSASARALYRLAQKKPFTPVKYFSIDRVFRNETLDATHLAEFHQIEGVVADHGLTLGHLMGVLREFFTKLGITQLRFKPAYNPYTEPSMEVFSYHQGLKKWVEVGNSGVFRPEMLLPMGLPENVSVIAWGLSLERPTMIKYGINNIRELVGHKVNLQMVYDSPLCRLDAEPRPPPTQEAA
T4 sequence (Q9NSD9 1-589 partner): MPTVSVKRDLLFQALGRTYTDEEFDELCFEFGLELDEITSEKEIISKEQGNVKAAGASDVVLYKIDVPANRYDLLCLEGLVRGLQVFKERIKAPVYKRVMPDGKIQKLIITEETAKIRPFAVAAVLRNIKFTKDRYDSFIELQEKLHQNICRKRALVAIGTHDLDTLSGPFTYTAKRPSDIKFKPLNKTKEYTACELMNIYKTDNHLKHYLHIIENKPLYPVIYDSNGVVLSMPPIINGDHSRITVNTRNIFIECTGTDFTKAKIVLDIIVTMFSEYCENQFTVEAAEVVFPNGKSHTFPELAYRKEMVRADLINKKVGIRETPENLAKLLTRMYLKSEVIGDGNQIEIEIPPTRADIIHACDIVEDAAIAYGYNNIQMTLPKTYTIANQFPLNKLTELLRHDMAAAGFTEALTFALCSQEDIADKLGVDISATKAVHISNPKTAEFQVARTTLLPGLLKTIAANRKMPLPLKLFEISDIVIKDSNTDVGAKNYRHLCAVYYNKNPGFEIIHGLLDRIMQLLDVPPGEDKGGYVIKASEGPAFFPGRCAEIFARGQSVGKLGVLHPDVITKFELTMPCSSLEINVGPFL

HDAC1 Recombinant [5] = target: T5, HDAC1 Recombinant (Homo sapiens, UniProt Q13547); experiment: HDAC1 enzymatic activity assay with recombinant protein; type: biochemical; details: 5 nM HDAC1, 18 μM MAZ1600 substrate (3 × KM), 3 h incubation
T5 construct: purchased BPS Bioscience Inc 50051
T5 sequence (Q13547 whole entry): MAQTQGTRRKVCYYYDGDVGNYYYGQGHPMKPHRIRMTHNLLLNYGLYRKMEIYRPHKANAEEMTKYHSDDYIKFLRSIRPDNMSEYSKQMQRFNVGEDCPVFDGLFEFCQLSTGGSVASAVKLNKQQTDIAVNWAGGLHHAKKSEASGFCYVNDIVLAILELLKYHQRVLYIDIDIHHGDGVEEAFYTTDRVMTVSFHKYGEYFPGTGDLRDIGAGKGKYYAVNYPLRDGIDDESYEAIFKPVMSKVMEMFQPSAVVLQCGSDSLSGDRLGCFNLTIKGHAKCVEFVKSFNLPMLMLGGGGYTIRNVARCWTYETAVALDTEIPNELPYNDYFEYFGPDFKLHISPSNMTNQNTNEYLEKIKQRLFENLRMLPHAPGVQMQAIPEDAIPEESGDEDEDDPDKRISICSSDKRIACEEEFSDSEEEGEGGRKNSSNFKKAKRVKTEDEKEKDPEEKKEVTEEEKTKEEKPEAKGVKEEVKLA

HDAC1 Recombinant [6] = target: T5, HDAC1 Recombinant; experiment: TR-FRET assay with recombinant HDAC1; type: binding; details: 5 nM HDAC1, 2.5 nM Tb-Anti-6xHis IgG, 20 nM SAHA-NCT, 3 h
HDAC1-HaloTag = HDAC1-HaloTag (Homo sapiens, UniProt Q13547)
HDAC1-HaloTag, sequence (Q13547 whole entry): as above

HDAC1-HaloTag in HEK293T cells, sequence (Q13547 whole entry): as above

Structure (SMILES): CC(=O)Nc1ccc(C(=O)Nc2ccccc2N)cc1 [CI-994]
inhibition at 100 µM [1]: < 5%

Kd (BRD4(BD1)): 6.5 ± 1.1 nM
Kd (BRD4(BD2)): 5.8 ± 1.5 nM
Structure (SMILES): Cc1sc2c(c1C)C(c1ccc(Cl)cc1)=NC(CC(=O)NCCCOCCOCCOCCCNC(=S)Nc1ccc(-c3c4ccc(=O)cc-4oc4cc(O)ccc34)c(C(=O)O)c1)c1nnc(C)n1-2 (stereo not shown) [JQ1-FITC, 5-(3-(1-(4-(4-chlorophenyl)-2,3,9-trimethyl-6H-thieno[3,2-f][1,2,4]triazolo[4,3-a][1,4]diazepin-6-yl)-2-oxo-7,10,13-trioxa-3-azahexadecan-16-y)thioureido)-2-(6-hydroxy-3-oxo-3H-xanthen-9-yl)benzoic acid]

Structure (SMILES): Nc1ncnc2c1ncn2[C@@H]1O[C@H](CN(CCCCCCOCCOCCNC(=O)c2ccc(C(=O)O)c(-c3c4ccc(=O)cc-4oc4cc(O)ccc34)c2)S(=O)(=O)NC(=O)[C@@H](N)Cc2ccccc2)[C@@H](O)[C@H]1O [MAT588, 4-((2-(2-((6-((N-(L-phenylalanyl)sulfamoyl)(((2R,3S,4R,5R)-5-(6-amino-9H-purin-9-yl)-3,4-dihydroxytetrahydrofuran-2-yl)methyl)amino)hexyl)oxy)ethoxy)ethyl)carbamoyl)-2-(6-hydroxy-3-oxo-3H-xanthen-9-yl)benzoic acid]
Kd [2]: < 10 nM
selectivity for HsmPheRS over HscPheRS [3]: > 1,000 fold
Kd [4]: > 10000 nM

IC50 (HDAC1 Recombinant [5]): 8 nM
Kd (HDAC1 Recombinant [5]): 2 nM
Kd (HDAC1 Recombinant [6]): 9 nM
Kd (HDAC1-HaloTag): 9 nM
Structure (SMILES): O=C(CCCCCCC(=O)Nc1ccc(CNC(=O)c2ccc(C(=O)O)c(C3=c4cc5c6c(c4Oc4c3cc3c7c4CCCN7CCCC3)CCC[N+]=6CCCC5)c2)cc1)NO [SAHA-NCT]
